Measurements published in patent US8501946B2 (Glaxo Group Limited, priority 2009, dated 2013).

What follows are compounds tested against T1, human recombinant P2X7 receptors (Homo sapiens, UniProt Q99572) (assay: Ethidium Accumulation Assay 1 (HEK293 cells, ATP-induced ethidium uptake)). Conditions: HEK293 cells expressing human P2X7; 1 mM ATP; sometimes mean of more than one measurement; read-out: Assay 1 (antagonist pIC50 for blocking ATP responses) (converted).
T1 construct: expressed in transfected cells
T1 sequence (Q99572 1-595): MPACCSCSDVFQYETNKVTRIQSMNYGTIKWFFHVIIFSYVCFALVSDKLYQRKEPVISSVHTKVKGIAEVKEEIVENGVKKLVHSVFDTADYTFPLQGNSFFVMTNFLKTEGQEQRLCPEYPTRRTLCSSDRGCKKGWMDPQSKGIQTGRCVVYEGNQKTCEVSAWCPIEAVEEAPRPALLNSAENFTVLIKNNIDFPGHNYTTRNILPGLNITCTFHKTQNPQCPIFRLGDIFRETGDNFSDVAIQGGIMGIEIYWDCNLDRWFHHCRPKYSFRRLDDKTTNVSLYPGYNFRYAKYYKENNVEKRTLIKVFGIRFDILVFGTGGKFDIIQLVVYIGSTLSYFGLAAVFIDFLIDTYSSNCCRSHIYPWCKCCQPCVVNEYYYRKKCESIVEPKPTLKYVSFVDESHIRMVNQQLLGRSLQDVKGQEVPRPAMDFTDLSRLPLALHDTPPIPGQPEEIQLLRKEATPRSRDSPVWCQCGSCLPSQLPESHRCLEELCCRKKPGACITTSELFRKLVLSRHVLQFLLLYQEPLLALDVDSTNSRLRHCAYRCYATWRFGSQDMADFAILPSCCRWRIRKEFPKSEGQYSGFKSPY
Format: cell-based
Procedure: Eithidium Accumulation Assay 1
Studies were performed using NaCl assay buffer of the following composition: 140 mM NaCl, 10 mM HEPES [4-(2-hydroxyethyl)-1-piperazine-1-ethanesulfonic acid], 5 mM N-methyl-D-glucamine, 5.6 mM KCl, 10 mM D-glucose, 0.5 mM CaCl2 (pH 7.4).
Human Embryonic Kidney (HEK) 293 cells, stably expressing human recombinant P2X7 receptors, were grown in poly-D-lysine pretreated 96 well plates for 18-24 hours.
The cells were washed twice with 350 μl of the assay buffer, before addition of 50 μl of the assay buffer containing the putative P2X7 receptor antagonist compound. (A small amount of dimethyl sulfoxide, for initially dissolving the compound, is optionally used and present in this 50 μl test compound sample.) The cells were then incubated at room temperature (19-21° C.) for 30 min before addition of ATP and ethidium (100 μM final assay concentration). The ATP concentration was chosen to be close to the EC80 for the receptor type and was 1 mM for studies on the human P2X7 receptor. Incubations were continued for 8 or 16 min and were terminated by addition of 25 μl of 1.3M sucrose containing 4 mM of the P2X7 receptor antagonist Reactive Black 5 (Aldrich). […] Antagonist pIC50 values for blocking ATP responses were determined using iterative curve fitting techniques.

Row | SMILES | IC50 [µM]
1 | CCCc1nnc2n1CCN(C(=O)c1cccc(C(F)(F)F)c1Cl)C2 [Example 134, 7-{[2-chloro-3-(trifluoromethyl)phenyl]carbonyl}-3-propyl-5,6,7,8-tetrahydro[1,2,4]triazolo[4,3-a]pyrazine] | < 0.1
2 | O=C(c1cccc(Cl)c1Cl)N1CCn2c(nnc2-c2ccc[nH]2)C1 [Example 64, 7-[(2,3-dichlorophenyl)carbonyl]-3-(1H-pyrrol-2-yl)-5,6,7,8-tetrahydro[1,2,4]triazolo [4,3-a]pyrazine] | < 0.01
3 | Cc1cccc(-c2nnc3n2CCN(C(=O)c2cccc(C(F)(F)F)c2Cl)C3)n1 [Example 26, 7-{[2-chloro-3-(trifluoromethyl)phenyl]carbonyl}-3-(6-methyl-2-pyridinyl)-5,6,7,8-tetrahydro[1,2,4]triazolo [4,3-a]pyrazine] | < 0.01
4 | Cn1cccc1-c1nnc2n1CCN(C(=O)c1cccc(Cl)c1Cl)C2 [Example 48, 7-[(2,3-dichlorophenyl)carbonyl]-3-(1-methyl-1H-pyrrol-2-yl)-5,6,7,8-tetrahydro[1,2,4]triazolo [4,3-a]pyrazine] | < 0.1
5 | COc1ccccc1-c1nnc2n1CCN(C(=O)c1ccc(F)cc1Cl)C2 [Example 127, 7-[(2-chloro-4-fluorophenyl)carbonyl]-3-[2-(methyloxy)phenyl]-5,6,7,8-tetrahydro[1,2,4]triazolo[4,3-a]pyrazine] | < 0.501
6 | O=C(c1ccc(Cl)cc1C(F)(F)F)N1CCn2c(nnc2-c2cnccn2)C1 [Example 142, 7-{[4-chloro-2-(trifluoromethyl)phenyl]carbonyl}-3-(2-pyrazinyl)-5,6,7,8-tetrahydro[1,2,4]triazolo[4,3-a]pyrazine] | < 0.1
7 | O=C(c1ccc(F)cc1Cl)N1CCn2c(nnc2-c2cccc3cc[nH]c23)C1 [Example 132, 7-[(2-chloro-4-fluorophenyl)carbonyl]-3-(1H-indol-7-yl)-5,6,7,8-tetrahydro[1,2,4]triazolo[4,3-a]pyrazine] | < 0.1

More lines, now with the values ahead:

Row | IC50 [µM] | SMILES
8 | < 0.01 | O=C(c1cccc(Cl)c1Cl)N1CCn2c(nnc2-c2cccnc2)C1 [Example 61, 7-[(2,3-dichlorophenyl)carbonyl]-3-(3-pyridinyl)-5,6,7,8-tetrahydro[1,2,4]triazolo [4,3-a]pyrazine]
9 | < 0.1 | Cn1nccc1-c1nnc2n1CCN(C(=O)c1cccc(C(F)(F)F)c1Cl)C2 [Example 68, 7-{[2-chloro-3-(trifluoromethyl)phenyl]carbonyl}-3-(1-methyl-1H-pyrazol-5-yl)-5,6,7,8-tetrahydro[1,2,4]triazolo [4,3-a]pyrazine]
10 | < 0.01 | O=C(c1cccc(C(F)(F)F)c1Cl)N1CCn2c(nnc2-c2ccccc2O)C1 [Example 138, 2-(7-{[2-chloro-3-(trifluoromethyl)phenyl]carbonyl}-5,6,7,8-tetrahydro[1,2,4]triazolo[4,3-a]pyrazin-3-yl)phenol]
11 | < 0.1 | Cc1ncccc1-c1nnc2n1CCN(C(=O)c1cccc(Cl)c1Cl)C2 [Example 73, 7-[(2,3-dichlorophenyl)carbonyl]-3-(2-methyl-3-pyridinyl)-5,6,7,8-tetrahydro[1,2,4]triazolo [4,3-a]pyrazine]
12 | < 0.501 | O=C(c1ccc(F)cc1Cl)N1CCn2c(nnc2-c2ccccc2O)C1 [Example 128, 2-{7-[(2-chloro-4-fluorophenyl)carbonyl]-5,6,7,8-tetrahydro[1,2,4]triazolo[4,3-a]pyrazin-3-yl}phenol]
13 | < 0.501 | O=C(c1c(Cl)cccc1Cl)N1CCn2c(nnc2-c2ccccn2)C1 [Example 89, 7-[(2,6-dichlorophenyl)carbonyl]-3-(2-pyridinyl)-5,6,7,8-tetrahydro[1,2,4]triazolo [4,3-a]pyrazine]
14 | < 0.501 | O=C(c1ccccc1Cl)N1CCn2c(nnc2-c2ccncn2)C1 [Example 116, 7-[(2-chlorophenyl)carbonyl]-3-(4-pyrimidinyl)-5,6,7,8-tetrahydro[1,2,4]triazolo[4,3-a]pyrazine]
